Experimental data from a melting point compilation (Tetko et al.; mined from patent text by program, amines drawn as free bases though some values may be those of a salt).

Q: For `CC(=O)N1N=C(c2ccc([N+](=O)[O-])cc2)c2cc3c(cc2C=C1C)OCO3`, which melting point is on record?
A: 205 to 207 °C

Q: Which melting point does the source give for `COc1cnc(CSc2nc3cc4c(cc3[nH]2)OCO4)cc1OC` here?
A: 198 to 200 °C

Q: Which melting point does the source give for `COc1ccc(CCC(=O)c2ccc(O)cc2O)c(OC)c1C` here?
A: 171 °C

Q: With `O=[N+]([O-])c1ccc(CN2CCNCCNCCNCC2)cc1` as the molecule, how does the melting point read?
A: 128 to 129 °C

Q: With `COc1ccc2c(c1)Sc1ccccc1C(=O)N2` as the molecule, how does the melting point read?
A: 232 to 234 °C

Q: For `CCCCCCC1=C(Br)C(O)(CO)NC1=O` (stereo not given), which melting point is on record?
A: 134 to 135 °C

Q: Which melting point does the source give for `Cc1ccc(C#N)cc1-c1cc2cnc(NC3CCOCC3)nc2n(C)c1=O` here?
A: 254 °C

Q: With `CCOC(=O)c1cnn(-c2ccc(OCC(CC)CC)c(C#N)c2)c1` as the molecule, how does the melting point read?
A: 114 to 115 °C

Q: For `Nc1nc(COc2ccc(Cl)cc2)nc2nccnc12`, which melting point is on record?
A: 246 to 248 °C

Q: For `C[Si](C)(C)N=C(C(=N[Si](C)(C)C)c1ccccc1)c1ccccc1`, which melting point is on record?
A: 69 to 70 °C

Q: With `OCc1ccc(O)c(CO)c1CNCCCCCCOCCc1ccco1` as the molecule, how does the melting point read?
A: 91 to 93 °C

Q: With `CCCC(=O)C1=C(O)CC(c2c(C)c(C)c(C)c3c2OC(C)C3C)CC1=O` (stereo not given) as the molecule, how does the melting point read?
A: 119 to 120 °C

Q: Which melting point does the source give for `COc1ccc(C)cc1NC(=O)Nc1ccc(N2CCN(C(=O)Nc3ccc(OCCO)cc3C(F)(F)F)CC2)c(C#N)c1` here?
A: 135 to 137 °C

Q: Which melting point does the source give for `Nc1ccc2nc(-c3ccccc3)oc2n1` here?
A: 210 °C

Q: Which melting point does the source give for `Cc1nc(NCCSCc2nc[nH]c2C)[nH]c(=O)c1Cc1cccnc1` here?
A: 128 to 131 °C

Q: With `Cc1cc(CC(=O)OC(C)(C)C)ccc1NC(=O)Nc1ccccc1F` as the molecule, how does the melting point read?
A: 89 to 91 °C

Q: For `CCOC(=O)c1cc(=O)c2c(CC)cc(Cl)cc2[nH]1`, which melting point is on record?
A: 182 to 183 °C

Q: Which melting point does the source give for `Cc1cc(C)c(S(=O)(=O)N[C@@H](CNC(=O)c2ccc3c(cnn3CCc3cc(=O)[nH]c(N)n3)c2)C(=O)O)c(C)c1` here?
A: 194 to 195 °C

Q: Which melting point does the source give for `CC(C)(C)c1ccccc1NC(=O)C(=O)O` here?
A: 111 to 113 °C

Q: With `COc1cccc2c1C=C(C(=O)O)C(CC(F)(F)F)O2` (stereo not given) as the molecule, how does the melting point read?
A: 204 to 207 °C

Q: Which melting point does the source give for `CCCCCCCCCCCCCCCCCCOC[C@@H](O)COC(=O)CCCCl` here?
A: 48 °C

Q: For `CCCCC(Cc1ccc(OCCNC(=O)c2ccc(OC(C)C)nc2)cc1)C(=O)O` (stereo not given), which melting point is on record?
A: 117 to 118 °C

Q: With `COc1ncnc(-c2cc(NS(C)(=O)=O)c(Cl)cc2Cl)c1C#N` as the molecule, how does the melting point read?
A: 160 to 162 °C

Q: For `N=C(N)c1ccc2ncn(CC(=O)N3CCC(Cc4ccccc4)CC3)c2c1`, which melting point is on record?
A: 68 to 70 °C

Q: For `C#CCN(Cc1cc2c(=O)n(C)c(CN(CC)CC)nc2cc1Cl)c1ccc(C(=O)OC(C)(C)C)cc1`, which melting point is on record?
A: 112 to 113 °C

Q: With `Clc1ccc2ccc(/C=C/c3ccc(CN4CCc5cccc(CCc6nnn[nH]6)c54)cc3)nc2c1` as the molecule, how does the melting point read?
A: 83 to 87 °C

Q: Which melting point does the source give for `CC(=O)Nc1ccccc1Oc1cc2c(=O)ccoc2cc1NS(C)(=O)=O` here?
A: 130 to 132 °C

Q: Which melting point does the source give for `O=C1Nc2ccc(S(=O)(=O)N3CCC[C@H]3CN3CCOCC3)cc2C1=O` here?
A: 163 to 164 °C

Q: With `CCc1cc(Nc2ccccc2)cc(CC)c1N` as the molecule, how does the melting point read?
A: 42 to 44 °C

Q: Which melting point does the source give for `CNC(=O)C(CCN(C)C)(c1ccccc1)C(O)c1ccccc1` (stereo not given) here?
A: 107 to 115 °C

Q: Which melting point does the source give for `Cc1ccccc1-c1c(C(=O)N(C)Cc2cc(C(F)(F)F)cc(C(F)(F)F)c2)n(C)c(=O)c2cccnc12` here?
A: 183 to 185 °C

Q: Which melting point does the source give for `CCC1(c2cc(NC(=O)c3c(OC)cccc3OC)no2)CCCCC1` here?
A: 179 to 181 °C

Q: With `CS(=O)(=O)c1ccc(-c2cnn(-c3cccc(Cl)c3)c(=O)c2OCc2ccccc2)cc1` as the molecule, how does the melting point read?
A: 110 to 113 °C

Q: For `CC(c1c[nH]cn1)c1cccc(CO)c1O` (stereo not given), which melting point is on record?
A: 135 to 136 °C

Q: Which melting point does the source give for `CS(=O)(=O)n1c(=NC(F)(F)F)oc2ccccc21` here?
A: 142 to 146 °C

Q: For `Cn1ncc(C(=O)N2CCC2)c1C(=O)Nc1ccn2nc(Br)nc2c1`, which melting point is on record?
A: > 250 °C

Q: With `Cc1cccc(OC2=NS(=O)(=O)N=C(N)N2C(C)C)c1` as the molecule, how does the melting point read?
A: 56 to 58 °C

Q: Which melting point does the source give for `Clc1ccc2[nH]cc(C3=CCN(CCOc4ccccc4)CC3)c2c1` here?
A: 172 °C

Q: For `COc1cc(-c2cc(F)cc(C#N)c2)cc2c1NC(=O)OC2(C)C`, which melting point is on record?
A: 252 to 253 °C

Q: With `Cc1cc(Br)cnc1CCCNc1ncc(Cc2cccnc2)cc1O` as the molecule, how does the melting point read?
A: 141 to 143 °C

Q: For `COC(=O)c1cc(NC(=O)c2ccnc(C)c2)c2cc(Cc3ccc(F)cc3)cnc2c1O`, which melting point is on record?
A: 229 to 230 °C

Q: With `O=C(Nc1ccnc(Br)c1)C1(O)CCCC1` as the molecule, how does the melting point read?
A: 153 °C

Q: With `CCC(=O)N(C(=O)CC)c1c(I)cc(Br)cc1S(=O)(=O)Cl` as the molecule, how does the melting point read?
A: 127 to 132 °C

Q: With `O=C(O)CCCN1C(=O)c2ccc(C(=O)O)cc2C1=O` as the molecule, how does the melting point read?
A: 218 to 220 °C

Q: Which melting point does the source give for `COC(=O)Cc1ccnc(NC=O)n1` here?
A: 103 to 107 °C

Q: Which melting point does the source give for `O=c1[nH]c2ccccc2n1-c1cc(Cl)ccc1O` here?
A: 248 to 250 °C

Q: With `Cc1cc(-c2ccc(Cl)cc2)n(-c2ccc(S(N)(=O)=O)cc2)c1` as the molecule, how does the melting point read?
A: 196 to 198 °C

Q: With `CCOC(=O)c1cnn(-c2ccc(Br)cc2)c1C#N` as the molecule, how does the melting point read?
A: 104 to 105 °C

Q: With `O=C1NC(=O)N(Cc2ccccc2)C(=O)C1Cc1ccccc1` (stereo not given) as the molecule, how does the melting point read?
A: 107 to 109 °C

Q: Which melting point does the source give for `Cc1c(C)c2c(c(C)c1O)C(=O)CC(COc1ccc(CC3SC(=O)NC3=O)cc1)O2` (stereo not given) here?
A: 249 to 252 °C

Q: Which melting point does the source give for `Cc1cc(F)ccc1-c1nc(OCC(N)S(C)(=O)=O)nc2c1ccc(=O)n2-c1c(F)cccc1F` (stereo not given) here?
A: 95 to 99 °C

Q: Which melting point does the source give for `Cc1c(C)c(N2Cc3cc4c(cc3C2)OCO4)c(C)c2c1OC(C)(C)C2c1ccc(C(C)C)cc1` (stereo not given) here?
A: 175 to 177 °C

Q: With `O=Cc1ccc(C(=O)Nc2ccc(C(F)(F)F)cc2)cc1` as the molecule, how does the melting point read?
A: 173 °C

Q: Which melting point does the source give for `Cc1oc(-c2ccccc2)nc1COc1ccc(Cn2cc(CCC(=O)O)c(-c3ccc(C(F)(F)F)cc3)n2)cc1` here?
A: 149 to 150 °C

Q: For `CC(C)(C)c1ccc(C(=O)Nc2cn3cc(-n4cccc4)ccc3n2)cc1`, which melting point is on record?
A: 274 to 275 °C

Q: Which melting point does the source give for `CC1CCN(c2cc(-c3ncccn3)nc(Cl)c2-c2c(F)cccc2Cl)CC1` here?
A: 129 °C

Q: With `O=C(Cc1cc(C(F)(F)F)ns1)c1ccc(Cl)cc1` as the molecule, how does the melting point read?
A: 109 to 110 °C

Q: For `CCCCc1ccc(NC(=O)CCC)c(N=C(NC(=O)OC)SC)c1`, which melting point is on record?
A: 116 °C

Q: For `CCc1nc2cc(Cl)c(Cl)cc2n1C1CC(CO)C(O)C1O` (stereo not given), which melting point is on record?
A: 191 to 193 °C

Q: Which melting point does the source give for `O=C(O)C=CC(=O)c1ccccc1[N+](=O)[O-]` here?
A: 153 to 158 °C

Q: With `CCOc1nnc2cc(Cl)ccc2n1` as the molecule, how does the melting point read?
A: 90 to 92 °C

Q: For `CC[C@@H](C(=O)O)n1ccc2ccc(Cl)cc2c1=O`, which melting point is on record?
A: 160 °C

Q: Which melting point does the source give for `CCC(=O)c1ccc2c(Cc3ccccc3)c(CC)oc2c1` here?
A: 86 to 87 °C

Q: With `CCCCOP(=O)(Cc1cc(C(C)(C)C)c(O)c(C(C)(C)C)c1)Cc1cc(C(C)(C)C)c(O)c(C(C)(C)C)c1` as the molecule, how does the melting point read?
A: 133 to 135 °C

Q: Which melting point does the source give for `CC(NC(=NC#N)Nc1cccnc1)c1ccccc1` (stereo not given) here?
A: 185 to 187 °C

Q: With `COc1ccc(-c2nc(-c3ccccc3)c(N(C)c3ccccc3)s2)cc1` as the molecule, how does the melting point read?
A: 100 to 101 °C

Q: For `COC(=O)c1ccc(-c2nc(-c3ccc4c(c3)C(C)(C)CCC4(C)C)cs2)cc1`, which melting point is on record?
A: 138 to 140 °C

Q: For `CCOP(=O)(OCC)C(c1ccc2cc(O)ccc2c1)P(=S)(OCC)OCC` (stereo not given), which melting point is on record?
A: 85.5 to 86.5 °C

Q: With `COCCCNCC(=O)Nc1ccc(C(=O)OC)cc1` as the molecule, how does the melting point read?
A: 49 to 50 °C

Q: Which melting point does the source give for `COc1cc(COC(=O)C2Cc3sccc3C(=O)N2Cc2cc(OC)c(OC)c(OC)c2)cc(OC)c1OC` (stereo not given) here?
A: 55 °C
